The source of these data is paper PMC9237807 (Pharmacology Research & Perspectives, 2022).

Experiment [1] concerns the target T1, human β1‐adrenoceptor (Homo sapiens, UniProt P08588). Briefly: [3H]-DHA association kinetics. The class given is binding. The settings on record: human β1AR, 37°C.
For experiment [2], the system named is human β1‐adrenoceptors. Briefly: Simulated association and dissociation of β-blockers from kinetic parameters. The settings on record: 30 × K d (β1), free ligand removed at 5 min.
Experiment [3] deals with human β2‐adrenoceptors. The experiment is described as above. The settings on record: 30 × K d (β1), free ligand removed at 5 min.
In experiment [4] the target is T1, human β1‐adrenoceptor. Briefly: [3H]-DHA equilibrium competition binding.
Experiment [5] addresses T1, human β1‐adrenoceptor. Briefly: [3H]-DHA competition kinetic binding assay. The note with it: for koff / kon: human β1AR, CHO membranes, HBSS + 100 μM GTP, 37°C, ~3 nM [3H]-DHA.
[6] abbreviates: global fit, 3 radioligand concentrations.

T1 sequence (P08588 whole entry): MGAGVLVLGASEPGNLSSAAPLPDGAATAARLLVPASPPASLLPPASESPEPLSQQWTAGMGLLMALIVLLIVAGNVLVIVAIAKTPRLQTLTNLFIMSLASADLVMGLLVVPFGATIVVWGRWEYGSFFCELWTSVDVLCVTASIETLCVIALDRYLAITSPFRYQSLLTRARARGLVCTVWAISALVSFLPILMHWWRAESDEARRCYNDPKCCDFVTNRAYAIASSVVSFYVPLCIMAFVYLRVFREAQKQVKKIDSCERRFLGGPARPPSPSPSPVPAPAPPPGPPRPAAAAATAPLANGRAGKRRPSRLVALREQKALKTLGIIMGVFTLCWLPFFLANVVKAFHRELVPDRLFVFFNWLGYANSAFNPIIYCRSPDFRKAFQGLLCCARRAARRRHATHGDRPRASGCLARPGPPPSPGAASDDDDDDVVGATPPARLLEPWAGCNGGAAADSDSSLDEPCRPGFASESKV

For “1‐[4,6‐propyl‐^3H]dihydroalprenolol [[^3H]‐DHA]”, in experiment [1] (setting [6]), the “k off of radioligand” value turned out to be 0.00767 ± 0.0005 s⁻¹ and the “k on of radioligand” value is recorded as 5.28 ± 0.48 × 10^8 M^−1 min^−1. The Kd in experiment [1] (read-out: K d of radioligand, from the kinetic fit) was found to be 940 pM.

On to `CC(C)NC[C@H](O)COc1ccc(CC(N)=O)cc1` [Atenolol, (S)‐(−) atenolol], for which the “time until receptor binding is fully reversed (simulation)” value in experiment [2] (β1 and β2 adrenoceptors simulated) is recorded as ≤ 5 min.

Turning to `CC(C)NCC(O)COc1ccc(COCCOC(C)C)cc1` (centres unmarked) [Bisoprolol, bisoprolol hemifumarate], the “time for full dissociation from the β1‐adrenoceptor (simulation)” value in experiment [2] was “approximately 40 min”. Moreover, the “time for full dissociation from the β2‐adrenoceptor (simulation)” value in experiment [3] is on record as “a matter of seconds”.

`CC(C)(Cc1c[nH]c2ccccc12)NCC(O)COc1ccccc1C#N` (centres unmarked) [Bucindolol] showed a Ki in experiment [4] of 269 pM. For the same molecule, in experiment [5], the Kd was found to be 100 ± 0.4 pM, the koff is 0.00183 s⁻¹ and the kon is 1.85e+07 M⁻¹ s⁻¹.

The molecule `CC(C)(C)NCC(O)COc1cccc2c1CC(O)C(O)C2` (centres unmarked) [Nadolol, nadolol] had a Ki in experiment [4] of 33900 pM. In experiment [5], the Kd was 22400 pM, the koff worked out at 0.00283 ± 0.0005 s⁻¹ and the kon is given as 7.68 ± 0.79 × 10^6 M^−1 min^−1.
